Laboratory results as given in patent US4439448A, “Glutamine derivatives” (Mitsubishi Chemical Industries Ltd., priority 1980, dated 1984).
Where a name gives a salt, the structure may show the parent alone.

Key:
delayed hypersensitibity = assay: TEST 3 effects on delayed hypersensitivity (sheep red blood cell paw edema); format: in vivo, mice, ddY strain; details: four consecutive days
Experimental: Into the palms of the right rear limbs of mice (ddY strain, weighing 25-30 g) was injected 40 μl of sheep red blood cells the concentration of which was adjusted to 1×10^7 /40 μl. The test drug was administered intraperitoneally or orally for four consecutive days inclusive of the day of sheep red blood cell administration. Three days after the day of sheep red blood cell administration, 40 μl of sheep red blood cells which were adjusted to have a concentration of 5×10^8 /40 μl were administered into the palms of the left rear limbs. After 24 hours, the thickness of the palms of the right and left rear limbs was measured. The edema was expressed as the difference in thickness between the palms of the left and right rear limbs. The results are shown in FIG. 3, in which the edema in the medicated group is expressed as percent control which means the percentage of the edema found in the group in which physiological saline is applied (control group).

[1] = tested on: plaque forming cells in the spleen of mice; assay: TEST 2 effect on plaque forming cells in the spleen of mice inoculated with sheep red blood cells, C3H/He (Run 2); format: in vivo, mouse; details: 7 weeks, I.P. sheep cells, four consecutive days
Experimental: (§1) Mice were inoculated by intravascular or intraperitoneal administration of 1×10^8 sheep cells per animal. Each group consisted of five mice. The test drug was administered orally or intraperitoneally for four consecutive days from the day when the sheep cells were administered.

[2] = tested on: plaque forming cells in the spleen of mice; assay: TEST 2 effect on plaque forming cells in the spleen of mice inoculated with sheep red blood cells, Balb/c (Run 1); format: in vivo, mouse; details: 4 weeks, intravascular sheep cells, four consecutive days
Experimental: as §1

ddY mice = assay: TEST 1 acute toxicity in mice; format: in vivo
Excerpt: The test drug was suspended in aqueous 50% solution of Tween 80 and administered to ddY mice weighing 20-25 g orally or intraperitoneally in doses indicated in Table 1 below.

[3] = tested on: six strains as stipulated in the Labor Safety and Hygiene Law in Japan; assay: mutagenicity test using six strains; format: cell-based; details: ~100 μg/plate
rat adjuvant arthritis = assay: TEST 4 effect on rat adjuvant arthritis; format: in vivo, Sprague-Dawley rats; details: 27 consecutive days
Experimental: The test animals were Sprague-Dawley rats at the age of 8 weeks and each group consisted of ten animals. An intracutaneous injection of 0.05 ml of a suspension of 0.5 mg of Mycobacterium butyricum in liquid paraffin was applied to each animal at the paw of the right rear limb. For 27 consecutive days from the day before the adjuvant injection, Compound (2) was orally administered at doses of 3, 10 and 30 mg/kg with measurement of the volume of the paw.

[4] = 1,000 mg/kg IP, during 7 days after administration
[5] = 5,000 mg/kg PO, during 7 days after administration

Compound	% Control (edema, percentage of that in physiological saline control group) (delayed hypersensitibity; 30 mg/kg I.P.)	% Control (edema, percentage of that in physiological saline control group) (delayed hypersensitibity; 100 mg/kg P.O.)	% Control (edema, percentage of that in physiological saline control group) (delayed hypersensitibity; 3 mg/kg I.P.)	% Control (edema, percentage of that in physiological saline control group) (delayed hypersensitibity; 10 mg/kg I.P.)	% Control (edema, percentage of that in physiological saline control group) (delayed hypersensitibity; 30 mg/kg P.O.)	% Control (edema, percentage of that in physiological saline control group) (delayed hypersensitibity; 300 mg/kg P.O.)	other results
Cn1cnc([N+](=O)[O-])c1Sc1ncnc2nc[nH]c12 [Azathioprine, reference compound]	61.0%	58.2%	–	–	–	–	PFC × 2,500/spleen (Mean ± standard error) ([1]; 50 mg/kg P.O.): 46.7 ± 1.2 PFC × 2,500/spleen; PFC × 2,500/spleen (Mean ± standard error) ([2]; 50 mg/kg P.O.): 22.8 ± 2.40 PFC × 2,500/spleen
CCOC(=O)Cc1ccc(NC(=O)CC[C@@H](N)C(=O)O)cc1 [Compound (12), N-(4-Ethoxycarbonylmethylphenyl)-D-glutamine]	89.1%	81.7%	76.1%	107.9%	85.4%	80.7%	–
CCOC(=O)C(CC)c1ccc(NC(=O)CC[C@H](N)C(=O)O)cc1 (stereo partly drawn) [Compound (13), N-[4-(1-Ethoxycarbonyl-n-propyl)phenyl]-L-glutamine]	64.2%	87.4%	82.1%	70.5%	89.6%	75.7%	No. of dead mice/No. of test animals (ddY mice; mouse, in vivo): 0/5
CCOC(=O)C(C)(C)c1ccc(NC(=O)CC[C@H](N)C(=O)O)cc1 [Compound (14), N-[4-(1-Ethoxycarbonyl-1-methylethyl)phenyl]-L-glutamine]	71.9%	–	77.3%	72.6%	–	–	–
CCOC(=O)C(C)c1ccc(NC(=O)CC[C@H](N)C(=O)O)cc1 (stereo partly drawn) [Compound (15), N-[4-(1-Ethoxycarbonylethyl)phenyl]-L-glutamine]	67.6%	–	78.0%	62.6%	–	–	–
CCOC(=O)Cc1ccc(NC(=O)CC[C@H](N)C(=O)O)cc1 [Hydrochloride Compound (2)]	90.0%	75.7%	79.6%	90.7%	81.8%	67.2%	–
N-(2-Ethoxycarbonylmethylphenyl)-L-glutamine [Compound (7)]	86.8%	84.8%	92.4%	91.1%	92.8%	82.3%	–
N-(3-Ethoxycarbonylmethylphenyl)-L-glutamine [Compound (6)]	84.3%	82.8%	94.6%	83.2%	81.1%	83.1%	–
N-(4-Carboxymethylphenyl)-L-glutamine [Compound (2)]	62.3%	66.2%	69.7%	65.9%	78.8%	65.0%	No. of dead mice/No. of test animals (ddY mice; [4]): 0/5; No. of dead mice/No. of test animals (ddY mice; [5]): 0/5; mutagenicity [3]: negative in mutagenicity; PFC × 2,500/spleen (Mean ± standard error) ([1]; 30 mg/kg P.O.): 113.0 ± 20.4 PFC × 2,500/spleen; PFC × 2,500/spleen (Mean ± standard error) ([1]; 100 mg/kg P.O.): 160.0 ± 20.6 PFC × 2,500/spleen; PFC × 2,500/spleen (Mean ± standard error) ([1]; 300 mg/kg P.O.): 152.4 ± 11.4 PFC × 2,500/spleen; action on secondary inflammations (rat adjuvant arthritis; 3, 10 and 30 mg/kg orally): exerted an inhibitory action on these secondary inflammations in every dose; dose dependency of action on secondary inflammations (rat adjuvant arthritis; 3, 10 and 30 mg/kg orally): any definite dose dependency was not appreciated; decrease in body weight accompanying secondary inflammations (rat adjuvant arthritis; orally): an improving tendency; inhibitory action on primary inflammations caused by direct reaction of the adjuvant (rat adjuvant arthritis; orally): very slight; PFC × 2,500/spleen (Mean ± standard error) ([2]; 30 mg/kg P.O.): 99.0 ± 4.60 PFC × 2,500/spleen; PFC × 2,500/spleen (Mean ± standard error) ([2]; 100 mg/kg P.O.): 91.8 ± 18.6 PFC × 2,500/spleen; PFC × 2,500/spleen (Mean ± standard error) ([2]; 300 mg/kg P.O.): 73.4 ± 12.7 PFC × 2,500/spleen
N-(4-Ethoxycarbonylmethylphenyl)-L-glutamine [Compound (1)]	91.7%	76.4%	85.2%	78.2%	85.7%	74.5%	No. of dead mice/No. of test animals (ddY mice; [4]): 0/5; No. of dead mice/No. of test animals (ddY mice; [5]): 0/5
N-(4-ethoxycarbonylmethylphenyl)-L-glutamine hydrochloride [Compound (11)]	84.1%	80.8%	77.7%	67.3%	89.8%	83.7%	–
N-(4-n-Butyloxycarbonylmethylphenyl)-L-glutamine [Compound (5)]	72.2%	84.7%	91.6%	95.7%	94.5%	82.2%	–
N-(4-n-Propyloxycarbonylmethylphenyl)-L-glutamine [Compound (4)]	91.7%	91.9%	70.4%	80.2%	91.7%	79.6%	–
N-[4-(2-Ethoxycarbonylethyl)phenyl]-L-glutamine [Compound (8)]	81.0%	80.6%	76.2%	76.7%	85.0%	92.3%	–
N-[4-(2-Ethoxycarbonylvinyl)phenyl]-L-glutamine [Compound (10)]	85.8%	109.9%	100%	101%	81.3%	82.6%	–
N-[4-(3-Ethoxycarbonyl-n-propyl)phenyl]-L-glutamine [Compound (9)]	100.6%	96.7%	91.3%	80.2%	85.3%	88.9%	–
